Reference: article PMC10595561, “A novel microextraction technique aided by air agitation using a natural hydrophobic deep eutectic solvent for the extraction of fluvastatin and empagliflozin from plasma samples: application to pharmacokinetic and drug–drug interaction study” (RSC Advances, 2023)
Like-named read-outs stand apart in the source and are kept apart here.

Key:
[1] = cited from earlier work
[2] = tested on: organic anion transporting polypeptide 1B1 (OATP1B1); set-up: method as in PMID 27936281, PMID 19785645, PMID 29538325; conditions: cited from earlier work
[3] = carboxylic acid functional group; no reference given; cited from earlier work
[4] = Pharmacokinetic study of FLV in rabbits after oral FLV alone and with EMP; assay type: in vivo, New Zealand white rabbits; conditions: mean ± SD; for AUC(0-t) / k el / half-life / AUC(0-inf) / Cmax / MRT: rabbit, plasma, po, 2 mg/kg; for AUC(0-t): read-out: AUC0-24; for k el: read-out: Ke (elimination rate constant) (converted); for half-life: read-out: t0.5 (elimination half-life) (converted)
Experimental: Ethical approval (under the No. 06/2023/0111) for this research was granted by the ethics committee at Assiut University, Egypt, and the study was conducted in adherence to the principles outlined in the Declaration of Helsinki. The study involved six New Zealand white rabbits, each weighing 2.0 ± 0.2 kg, obtained from a licensed animal supplier in Assiut, Egypt. Before commencing the study, the rabbits' health was evaluated, ensuring they were in good condition. The rabbits were individually housed in cages measuring 0.8 × 0.6 × 0.5 m and given a 15 day acclimatization period to adjust to the experimental conditions and handling. During this time, no medications or vaccines were administered to the rabbits. The room temperature was kept constant at 25 ± 2 °C, and the relative humidity was maintained at 50 ± 5%. Throughout the acclimatization period, the rabbits were provided with a commercial pellet diet and water. Before the experiment began, the rabbits fasted for approximately 12 hours while being allowed access to water.
The rabbits administered FLV via oral route at a dose of 2.0 mg kg^−1. After a washout period of 14 days to allow any FLV to clear from the rabbits' bodies, the same rabbits administered both (2 mg kg^−1 for FLV and 1.5 mg kg^−1 for EMP). Blood samples (1.0 mL) were collected after administration of the studied analytes after 0.25, 0.5, 1, 1.5, 3, 5, 7, 10, 12, 18 and 24 h of their administration. The samples were drawn from marginal ear vein, placed into tubes that had been heparinized, and centrifuged for 15 minutes at 6000 rpm. The plasma was then collected and stored at −20 °C in dark containers until analysis. The pharmacokinetic parameters of FLV were calculated using one compartment model for the treated group using Phoenix®WinNonlin software version 5.1 (Pharsight, Mountain View, CA, USA). These parameters included total area under the curve (AUC) from 0 to 24 hours (AUC0→24), cumulative plasma concentration from 0 to infinity (AUC0→∞), peak plasma concentration (Cmax), elimination rate constant (Ke), mean residence time (MRT), absorption half-life (t1/2a), and elimination half-life (t1/2). The data are reported as mean ± standard deviation (mean ± SD). To analyze differences in parameters between the groups, t-test was employed, using GraphPad Prism 9.0.

[5] = New Zealand white, FLV (2 mg kg−1) co-administered with EMP (1.5 mg kg−1), oral, rabbit plasma
[6] = New Zealand white, FLV (2 mg kg−1) co-administered with EMP (1.5 mg kg−1), rabbit plasma
[7] = New Zealand white, FLV alone, oral 2.0 mg kg−1, rabbit plasma

SMILES	log P [1]	Effect on OATP1B1 transporter [2]	pKa [3]	Ka ([4]; FLV (2 mg kg−1) co-administered with EMP (1.5 mg kg−1), oral, rabbit plasma) [h⁻¹]	Ka ([4]; FLV alone, oral 2.0 mg kg−1, rabbit plasma) [h⁻¹]	AUC(0-t) [4, 5] [ng·h/mL]	k el [4, 5] [s⁻¹]	half-life [4, 5] [h]	AUC(0-inf) [4, 6] [ng·h/mL]	Cmax [4, 6] [ng/mL]	MRT [4, 6] [h]	AUC(0-inf) [4, 7] [ng·h/mL]	Cmax [4, 7] [ng/mL]	MRT [4, 7] [h]	AUC(0-t) [4, 7] [ng·h/mL]	k el [4, 7] [s⁻¹]	half-life [4, 7] [h]	Tmax [4, 5] [h]
OC[C@H]1O[C@@H](c2ccc(Cl)c(Cc3ccc(O[C@H]4CCOC4)cc3)c2)[C@H](O)[C@@H](O)[C@@H]1O [EMP, Empagliflozin]	1.7	inhibit																
CC(C)n1c(/C=C/C(O)CC(O)CC(=O)O)c(-c2ccc(F)cc2)c2ccccc21 (stereo not shown) [FLV, Fluvastatin]	4.5		around 4.8	2.52 ± 0.42	2.24 ± 0.42	2580 ± 245	2.5e-05	7.73	2900 ± 189	352	7.66 ± 0.77	1370 ± 144	250	6.99 ± 0.89	1340 ± 452	4.44e-05	4.27	1.5
